Consider one molecule from patent US20070010488A1, “Compounds for modulating cell proliferation” (priority 2005, published 2007).

Type in all cases: cell-based
Assay [1] concerns MOLT-4 (T-ALL). Kind of assay: Alamar Blue cell viability assay, MOLT-4. As to conditions: Homo sapiens, 72 hours. As to the method:
(§1) Each test compound was weighed between the ranges of 0.5-2.0 mg, and then dissolved in a specified volume of DMSO to produce a solution of 10 mM. Appropriate dilutions in cell culture medium were made to produce a stock solution of 400 μM. All subsequent dilutions were also done in cell culture medium. This stock solution was then used for further dilutions to produce the initial concentration to be added to the 50 μL and 450 μL of cells in the 96-well and the 48-well microtiter plates, respectively:
(§2) The initial concentration for cells that were cultured in 50 μL 96-well plates was 40 μM. […]
(§3) 50 μL of cell culture medium containing the test compound was added to each well twenty four hours after seeding. […] Proliferation of cells was assessed using the fluorimetric Alamar Blue (CellTiter Blue) test and cell counting.
(§4) For the Alamar Blue assay, untreated cells were used as growth controls. Data were assessed in duplicates. […] The Alamar Blue cell viability assay was used to determine the IC50 concentrations for the inhibition of cell proliferation or induction of cell death by the ets articles as well as the reference Compound A. Primary data from all assays were plotted for each test compound, cell system and test concentration, with the y-axis representing the readout for cell proliferation/viability and the x-axis representing the compound concentration (μM). […]

Assay [2] relates to RPMI8226 (myeloma). Kind of assay: Alamar Blue cell viability assay, RPMI8226. The note with it: Homo sapiens, RPMI-8226, 72 hours. The protocol:
as §1
(§5) The initial concentration for cells that were cultured in 50 μL 96-well plates was 40 μM. Once 50 μL of this test solution was added to the cells, this then produced a final dilution of 1:2, giving the desired concentration of 20 μM. Further 1:2 dilutions were made until the desired concentration of […] was reached.
(§6) Compound 1 was used as positive control at concentrations of 1 μM and 3 μM. […] C1 and OCI-AML2 and RPMI8226 cell culture media were assayed by addition of 20 μL of Alamar Blue reagent and incubated for 4 hours before reading. […]
as §3
(§7) For the Alamar Blue assay, untreated cells were used as growth controls. Data were assessed in duplicates. […]

For assay [3], the system named is SKM-1 (AML). Kind of assay: Alamar Blue cell viability assay, SKM-1. The note with it: Homo sapiens, 72 hours. As to the method: as §1, §2, §3, §4
Assay [4] deals with DAUDI (non-Hodgkin lymphoma). In words: Trypan Blue Dye Exclusion and Cell Counting Assay, DAUDI. As to conditions: Homo sapiens, 72 hours. The protocol:
as §1, §5
(§8) Compound 1 was used as positive control at concentrations of 1 μM and 3 μM. Cells were incubated with the test compounds for 72 hours. C1 and OCI-AML2 and RPMI8226 cell culture media were assayed by addition of 20 μL of Alamar Blue reagent and incubated for 4 hours before reading. Cell counting was utilised for K562 and DAUDI. [drawing 13] […]
as §3

The test system of assay [5] is KASUMI-1 (AML). Kind of assay: Alamar Blue cell viability assay, KASUMI-1. As to conditions: Homo sapiens, 72 hours. The protocol: as §1, §2, §3, §4
Assay [6] has as its system K562 (CML). In words: Trypan Blue Dye Exclusion and Cell Counting Assay, K562. The note with it: Homo sapiens, 72 hours. The protocol:
as §1, §5, §8, §3

For assay [7], the system named is OCI-AML2 (AML). Kind of assay: Alamar Blue cell viability assay, OCI-AML2. As to conditions: Homo sapiens, 72 hours. The protocol: as §1, §5, §6, §3, §7
Assay [8] relates to MV4-11 (AML). Kind of assay: Alamar Blue cell viability assay, MV4-11. The note with it: Homo sapiens, 72 hours. As to the method: as §1, §2, §3, §4
Assay [9] relates to CCRF-CEM (T-ALL). In words: Alamar Blue cell viability assay, CCRF-CEM. As to conditions: Homo sapiens, 72 hours. The protocol: as §1, §2, §3, §4
Assay [10] deals with C1 (T-ALL). Kind of assay: Alamar Blue cell viability assay, C1. As to conditions: Homo sapiens, 72 hours. The protocol:
as §1, §5, §6, §3, §7

Assay [11] deals with PEER (B-ALL). Kind of assay: Alamar Blue cell viability assay, PEER. The note with it: Homo sapiens, 72 hours. As to the method: as §1, §2, §3, §4

pIC50: −log10 of the molar value.

In the case of `CCN1C/C(=C\c2cc(OC)c(OC)c(OC)c2)C(=O)/C(=C/c2cc(OC)c(OC)c(OC)c2)C1` [Compound A], the negative-log IC50 (pIC50) in [1] was 6.01; in assay [2], 5.82; in [3], 6.25; in assay [4], 6.26; in assay [5], 6.25; in [6] it was 5.60. The pIC50 was 5.99 in assay [7]; 6.66 in assay [8]; 5.93 in assay [9]; 6.74 in [10]; 6.14 in [11].
